Measurements from publication PMC7037546, “High Cell Selectivity and Bactericidal Mechanism of Symmetric Peptides Centered on D-Pro–Gly Pairs” (International Journal of Molecular Sciences, 2020).
≈ marks a conversion by molar mass, not a printed value. Non-standard residues stand in square brackets, D forms with d. Residues, ends and D or L forms follow the SMILES beside them. No end group written: not given here.

Assays:
[1] = test system: Escherichia coli ATCC25922; test: microbe, parasite or virus in culture; details: ATCC25922, 16 h
Protocol: (§1) The antimicrobial activity of the designed peptides was examined using the micro-dilution method described previously. The bacteria were cultured for 16 h in MHB at 37 °C, and the microbial suspension was diluted to a final concentration of 10^5 colony-forming units (CFU)/mL. Then, 50 µL of MHB containing different concentrations peptides (0.25–256 µM) was mixed with 50 µL of bacterial solution, and the mixture was added to a 96-well plate. […] The assays were performed three times.

E. coli K88 = details: micro-dilution in MHB, 10^5 CFU/mL, 16 h, OD 492 nm, performed three times
Protocol: as §1

[2] = test system: Enterococcus faecalis ATCC29212; details: ATCC29212, 16 h
Protocol: as §1

Gram-negative bacteria = details: 16 h
Protocol: as §1

[3] = test system: Klebsiella pneumonia CMCC46117; details: CMCC46117, 16 h
Protocol: as §1

[4] = test system: Pseudomonas aeruginosa ATCC27853; details: ATCC27853, 16 h
Protocol: as §1

S. aureus ATCC29213 = details: ATCC29213, 16 h
Protocol: as §1

[5] = test system: Salmonella Pullorum NCTC5776; details: NCTC5776, 16 h
Protocol: as §1

[6] = test system: Staphylococcus aureus ATCC25923; details: ATCC25923, 16 h
Protocol: as §1

[7] = test system: methicillin-resistant S. aureus ATCC43300; details: ATCC43300, 16 h
Protocol: as §1

Gram-positive bacteria = test: Geometric mean of MICs and therapeutic index, Gram (+); type: cell-based; details: geometric mean over the Gram-positive strains of Table 2; 256 μM used when no activity at 128 μM
Protocol: as §1

RAW 264.7 cells = test: Cytotoxicity, CCK-8 assay; type: cell-based, murine; details: 64 μM peptide, 16 h, CCK-8, OD 450 nm
Protocol: (§2) The cytotoxicity was detected according to a CCK-8 assay as described previously. Briefly, RAW 264.7 and HEK293T cells were placed into 96-well plates at a density of 1.0–2.0 × 10^5, and then cultured for 16 h under conditions of 5% CO2. Then, two-fold diluted peptides in DMEM were added to the plates. After 16 h of culturing, CCK-8 (10%, v/v) was put into each well containing cell culture, and mixtures were cultured for 2 h. The cytotoxicity assay was examined by measuring the OD of the mixtures at 450 nm (Microplate reader, TECAN GENios F129004, Tecan, Salzburg, Austria). The assays were performed three times.

HEK293T cells = test: Cytotoxicity, CCK-8 assay; type: cell-based, human; details: 64 μM peptide, 16 h, CCK-8, OD 450 nm
Protocol: as §2

E. coli ATCC25922 [8] = type: cell-based, Escherichia coli; details: for MIC after pH treatment, pH 4 / MIC after pH treatment, pH 6 / MIC after pH treatment, pH 8 / MIC after pH treatment, pH 10: ATCC25922, 1 h; for MIC after temperature treatment, 0 °C / MIC after temperature treatment, 37 °C / MIC after temperature treatment, 100 °C / MIC in the presence of FeCl3 / MIC in the presence of KCl / MIC in the presence of MgCl2 / MIC in the presence of NH4Cl / MIC in the presence of NaCl / MIC in the presence of ZnCl2 / MIC, Control / MIC, Control (pH 7): ATCC25922, 16 h
Protocol: as §1
The salt, temperature, and pH sensitivities of designed peptides were determined by MIC assay as described previously. For the salt sensitivity assay, peptides were diluted in deionized water containing different salts, and mixed with E. coli ATCC25922 (10^5 CFU/mL). The final physiological concentrations of different salts were as follows: 150 mM NaCl, 4.5 mM KCl, 6 μM NH4Cl, 1 mM MgCl2, 8 μM ZnCl2, and 4 μM FeCl3. For temperature sensitivity, peptides were cooled on ice for 10 min, and incubated at 37 °C and 100 °C for 30 min. For pH sensitivity, peptides were treated with different pH for 1 h. Briefly, peptides were diluted in deionized water, and the pH of the solution was adjusted to 4.0, 6.0, 8.0, and 10.0 with HCl or NaOH. The subsequent steps were the same as for the MIC measurements. These tests were performed three times.

E. coli ATCC25922 [9] = details: ATCC25922, 16 h
Protocol: The combined antibacterial effect of peptides with other antibiotics was evaluated by checkerboard assay as described previously. […] Subsequently, each peptide at the same concentration was added to the longitudinal column of wells, and each antibiotic at the same concentration was added to the horizontal row of wells. A suspension at 10^5 CFU/mL was put into each well for 16 h at 37 °C. Each assay was performed three times.

Molecule	MIC [1]	MIC (E. coli K88)	MIC [2]	GM (geometric mean of MICs), Gram (−) (Gram-negative bacteria)	MIC [3]	MIC [4]	MIC (S. aureus ATCC29213)	MIC [5]	MIC [6]	MIC [7]	GM (geometric mean of MICs), Gram (+) (Gram-positive bacteria)	cell survival rate (RAW 264.7 cells)	cell survival rate (HEK293T cells)	MIC after pH treatment, pH 4 (E. coli ATCC25922 [8])	MIC after pH treatment, pH 6 (E. coli ATCC25922 [8])	MIC after pH treatment, pH 8 (E. coli ATCC25922 [8])	MIC after pH treatment, pH 10 (E. coli ATCC25922 [8])	MIC after temperature treatment, 0 °C (E. coli ATCC25922 [8])	MIC after temperature treatment, 37 °C (E. coli ATCC25922 [8])	MIC after temperature treatment, 100 °C (E. coli ATCC25922 [8])	other results
CC(C)C[C@H](NC(=O)[C@H](CC(C)C)NC(=O)[C@H](CCCNC(=N)N)NC(=O)[C@H](CC(C)C)NC(=O)[C@H](CC(C)C)NC(=O)[C@H](CCCNC(=N)N)NC(=O)[C@H](CCCNC(=N)N)NC(=O)CNC(=O)[C@H]1CCCN1C(=O)[C@H](CCCNC(=N)N)NC(=O)[C@H](CCCNC(=N)N)NC(=O)[C@H](CC(C)C)NC(=O)[C@H](CC(C)C)NC(=O)[C@H](CCCNC(=N)N)NC(=O)[C@H](CC(C)C)NC(=O)[C@@H](N)CC(C)C)C(N)=O [LRpG] (H-LLRLLRR[dP]GRRLLRLL-NH2)	2 µM (≈ 4.03 µg/mL)	2 µM (≈ 4.03 µg/mL)	32 µM (≈ 64.4 µg/mL)	3.5 µM	4 µM (≈ 8.05 µg/mL)	8 µM (≈ 16.1 µg/mL)	16 µM (≈ 32.2 µg/mL)	4 µM (≈ 8.05 µg/mL)	16 µM (≈ 32.2 µg/mL)	16 µM (≈ 32.2 µg/mL)	19.0 µM	92%	93%	2 µM	2 µM	2 µM	4 µM	2 µM (≈ 4.03 µg/mL)	2 µM (≈ 4.03 µg/mL)	2 µM (≈ 4.03 µg/mL)	MIC in the presence of FeCl3 (E. coli ATCC25922 [8]): 2 µM; MIC in the presence of KCl (E. coli ATCC25922 [8]): 2 µM; MIC in the presence of MgCl2 (E. coli ATCC25922 [8]): 2 µM; MIC in the presence of NH4Cl (E. coli ATCC25922 [8]): 2 µM; MIC in the presence of NaCl (E. coli ATCC25922 [8]): 8 µM; MIC in the presence of ZnCl2 (E. coli ATCC25922 [8]): 2 µM; MIC, Control (E. coli ATCC25922 [8]): 2 µM (≈ 4.03 µg/mL); MIC, Control (pH 7) (E. coli ATCC25922 [8]): 2 µM; FICI in combination with Cefotaxime (E. coli ATCC25922 [9]): 1; FICI in combination with Chloramphenicol (E. coli ATCC25922 [9]): 0.75; FICI in combination with Ciprofloxacin (E. coli ATCC25922 [9]): 0.625; FICI in combination with Streptomycin (E. coli ATCC25922 [9]): 0.5; FICI in combination with other conventional antibiotics (additive effect) (E. coli ATCC25922 [9]): 0.625-1
FFRFFRRGGRRFFRFF-NH2 [FRGG]	8 µM	16 µM	32 µM	16 µM	16 µM	32 µM	16 µM	16 µM	32 µM	32 µM	26.9 µM	66%	76%	32 µM	8 µM	8 µM	32 µM	8 µM	8 µM	8 µM	MIC in the presence of FeCl3 (E. coli ATCC25922 [8]): 8 µM; MIC in the presence of KCl (E. coli ATCC25922 [8]): 8 µM; MIC in the presence of MgCl2 (E. coli ATCC25922 [8]): 16 µM; MIC in the presence of NH4Cl (E. coli ATCC25922 [8]): 8 µM; MIC in the presence of NaCl (E. coli ATCC25922 [8]): 64 µM; MIC in the presence of ZnCl2 (E. coli ATCC25922 [8]): 16 µM; MIC, Control (E. coli ATCC25922 [8]): 8 µM; MIC, Control (pH 7) (E. coli ATCC25922 [8]): 8 µM
LLRLLRRGGRRLLRLL-NH2 [LRGG]	2 µM	4 µM	32 µM	4.6 µM	8 µM	8 µM	16 µM	4 µM	16 µM	32 µM	22.6 µM	84%	91%	2 µM	2 µM	2 µM	4 µM	2 µM	2 µM	2 µM	MIC in the presence of FeCl3 (E. coli ATCC25922 [8]): 2 µM; MIC in the presence of KCl (E. coli ATCC25922 [8]): 2 µM; MIC in the presence of MgCl2 (E. coli ATCC25922 [8]): 4 µM; MIC in the presence of NH4Cl (E. coli ATCC25922 [8]): 2 µM; MIC in the presence of NaCl (E. coli ATCC25922 [8]): 8 µM; MIC in the presence of ZnCl2 (E. coli ATCC25922 [8]): 2 µM; MIC, Control (E. coli ATCC25922 [8]): 2 µM; MIC, Control (pH 7) (E. coli ATCC25922 [8]): 2 µM
